Experimental data taken from US20060200330A1, “Methods and systems for modeling and simulating biochemical pathways” (KOREA INSTITUTE OF SCIENCE AND TECHNOLOGY, priority 2005, published 2006).

Key:
MAPK pathway = details: cited from earlier work; for effect on ERK activation, as reported: literature report
ERK = test: Western blot of ERK activation (anti-diphosphorylated ERK) in PC12 cells; assay type: cell-based; details: PC12 cells, PD09859 10 μM or U0126 0.01-10 μM, 100 ng/ml EGF or NGF for 5 min
Description: (§1) In order to confirm the simulation, PC12 cells treated with EGF (100 ng/ml) were used to measure the time data tracking the activation levels of MEK and ERK, respectively. […] Western blot analysis was performed as follows. PC12 cells were treated with 100 ng/ml EGF for 0 to 120 min. Dissolved protein samples were reacted by using anti-phosphorylated MEK antibodies and anti-diphosphorylated ERK antibodies. Then, the resultant was reacted with anti-HRP (horse radish peroxidase)-conjugated secondary antibodies and confirmed the presence of a band via ECL chemoluminscence.
(§2) PC12 cells treated with EGF or nerve growth factor (NGF) were examined to evaluate the efficacies of PD09859 (10 μM) and U0126 (0.01-10 μM) in respect of MEK and ERK activation. Western blot analysis was performed as follows. PC12 cells treated with PD09859 and U0126 were treated with 100 ng/ml of EGF or NGF for 5 min. Then, the resulting protein sample was separated by performing SDS/PAGE, and then blotted by using anti-phosphorylated MEK and anti-diphosphoryated ERK antibodies. Again, the resultant was blotted by using anti-HRP (horseradish peroxidase) conjugated secondary antibodies and identified in bands by ECL chemo-luminescence.

MEK = test: Western blot of MEK activation (anti-phosphorylated MEK) in PC12 cells; assay type: cell-based; details: PC12 cells, U0126 0.01-10 μM, 100 ng/ml EGF or NGF for 5 min
Description: as §1, §2

| Compound | effect on ERK activation, as reported (MAPK pathway) | ERK activation / intracellular ERK phosphorylation (ERK) | inhibition of MAPK pathway compared with the other inhibitor (MAPK pathway; U0126 versus PD09859, literature report) | MEK activation (MEK) |
| --- | --- | --- | --- | --- |
| COc1cccc(-c2cc(=O)c3ccccc3o2)c1N [PD98059] | suppress ERK activation | not suppressed |  |  |
| N#CC(=C(/N)Sc1ccccc1N)/C(C#N)=C(\N)Sc1ccccc1N [U0126] | suppress ERK activation | suppressed by the MEK activity dose-dependently | more effective and specific | not suppressed |
